Key:
common warts = assay: Case treatments of common warts on the hands by topical application (Examples 10-11); format: in vivo, human; conditions: Example 11, child, 15%
Description: A child presented with common verrucae on the dorsum of both hands involving the metacarpal-phalangeal joints for over 3 years. […] After 12 weeks, all warty lesions were gone. Twice a week the warts were gently scrubbed with a stiff nylon bristle brush before application of the tea tree oil emulsion to help remove the dead outer keratinized skin.
A child presented with common warts affecting the palms of both hands resistant to treatment. […] Twice weekly gentle scrubbing with a stiff nylon bristle brush before application of the emulsion to help remove the dead outer keratinized skin was performed.

Molluscum contagiosum = conditions: in vivo; cited from earlier work

SMILES: O=C(O)c1ccccc1O [Salicyclic acid]
- outcome of earlier conventional treatment of common warts (common warts): the warts multiplied and spread
- outcome of earlier conventional treatment of common warts (common warts; listed as salicylic acid): failed to eradicate the viral lesions

SMILES: Nc1nc2c(ncn2COCCO)c(=O)[nH]1 [acyclovir]
- effect on lesions caused by Molluscum contagiosum (Molluscum contagiosum): no effect
